The values below come from patent publication US8480909B2, “Method for treatment of canals” (priority 2009, dated 2013).

The structures appear in SMILES notation. “Also recorded” adds a separate entry of the source.

One data set concerns insects. The conditions noted are these: cited from earlier work.
In the next data set the test system is fish. The conditions noted are these: cited from earlier work.
For data set [1] the following is noted: cited from earlier work.
The next data set deals with crustaceans. The conditions noted are these: cited from earlier work.
Another data set relates to zooplankton. Particulars: cited from earlier work.
For another data set, the system named is amphibians. Particulars: cited from earlier work.
The subject of the next data set is mollusks. The conditions noted are these: cited from earlier work.
The next data set concerns rats. Particulars: oral; cited from earlier work.
The subject of another data set is algae. The data set is described as follows: Treatment of agricultural-water canal with air-stream-entrained calcium hypochlorite; visual observation of algae. It is filed as in vivo. Particulars: per quarter-mile canal section. The source says: The device and method of the present invention were employed to treat a canal, and visual observations of the amount of algae present in the canal before this treatment, and periodically after this treatment, are set forth in Tables 1-3 below. (The visual observations are accurate and realistic evaluations because the visual amount of algae in the canal correlates well to actual biological-debris problems.) This canal is fed from a large water reservoir which has about thirty percent of its surface covered with algae. This canal is therefore continuously being inoculated with algae which enters with the source water. The flow rate of the water when entering the canal is about one hundred eighty cubic feet per second. Due to water usage from the various growers along the canal, this initial water flow rate decreases at points along the canal, and then decreases dramatically over the last mile to about twenty cubic feet per second. This canal is a typical example of one which is in need of treatment to remediate organic debris. Prior to the treatments of this Example 1, this canal was being point treated with acrolein every eight to ten days during the height of the irrigation season to obtain a satisfactory treatment. In this Example 1, the canal was treated three times along substantially its entire length by propelling a calcium hypochlorite-entrained air stream to the water surface and to the sides of the canal from a delivery system suspended off a mobile unit as described above. An operator made visual assessments of the degree of organic debris build-up along the canal and adjusted the concentration of calcium hypochlorite in the air stream accordingly. The pre-treatment and post-treatment conditions of the canal are shown in Tables 1, 2 and 3 below where the visual assessment of organic debris, made at each quarter mile along the length of the canal, are reported at: (a) just before treatment; (b) twelve hours after the treatment; (c) about a week (seven or eight days) after the treatment; and about a week and a half (ten, twelve and ten days, respectively) after treatment. The just before treatment assessment for the second and third treatments set forth in Tables 2 and 3 below are also continued-assessments of the prior treatment (i.e., the T2-b observations in Table 2 are the same as the T1-10d observations in Table 1, and the T3-b observations in Table 3 are the same as the T2-12d observations in Table 2). Further, any relative terms in an observation refer to the prior observation made at the given time; for example, the “slightly larger patches” observation under T1-10d at 0.75 to 1.00 miles in Table 1 below refers to the patches being slightly larger than the patches observed at T1-10d at 0.50 to 0.75 miles, and not to the canal condition observed at T1-7d at 0.75 to 1.00 miles.

For `C=CC=O` [Acrolein], the average acute toxicity result in the data set on insects is “moderately toxic”; in the data set on fish it was “highly toxic”; in the data set with crustaceans it was “moderately toxic”; in the data set on zooplankton, “highly toxic”; in the data set with amphibians it was “very highly toxic”; with mollusks, “highly toxic”. Moreover, the water solubility in [1] was 238,000 mg/L.
`[Ca+2].[O-]Cl.[O-]Cl` [calcium hypochlorite]: the LD50 in the data set with rats is given as 850 gm/100 kg. Also, the “Canal Description (visual observation of algae)” value (“Canal Description” below) in the data set with algae (T1-12 h: 12 hr. after Treatment 1, canal section 2.75 to 3.00 miles) was “Canal visually free of algae”; in the data set on algae (T1-12 h: 12 hr. after Treatment 1, canal section 3.25 to 3.50 miles), “Canal is visually free of algae”; in the data set with algae (T1-12 h: 12 hr. after Treatment 1, canal section 4.75 to 5.00 miles), “Small amounts of discolored/dying algae are adhering to the bottom of the canal”; in the data set on algae (T1-12 h: 12 hr. after Treatment 1, canal section 5.50 to 5.75 miles) it was “Small amounts of discolored/dying algae are adhering to bottom of the canal”; with algae (T1-12 h: 12 hr. after Treatment 1, canal section 5.75 to 6.00 miles) it was “Small amounts of discolored/dying algae are adhering to the bottom and sides of”; in the data set with algae (T1-7 d: 7 days after Treatment 1, canal section 0.00 to 0.25 miles) it was “Clear, visually free of algae”. In addition, the “Canal Description” value was “Slight amount of algae is growing on the water surface of the canal” in the data set with algae (T1-7 d: 7 days after Treatment 1, canal section 2.75 to 3.00 miles); “Slight amount of algae is growing on the water surface and along the sides of” in the data set on algae (T1-7 d: 7 days after Treatment 1, canal section 3.25 to 3.50 miles); “Slight amount of is algae is growing on the water surface and along the sides” in the data set with algae (T1-7 d: 7 days after Treatment 1, canal section 5.25 to 5.50 miles); “Slight amount of algae is growing on the water surface and along the sides” in the data set with algae (T1-7 d: 7 days after Treatment 1, canal section 5.50 to 5.75 miles); “Small amount of algae is growing on the water surface. Slight amount of algae” with algae (T1-7 d: 7 days after Treatment 1, canal section 6.50 to 6.75 miles); “Small amount of algae is growing on the water surface. Small amount of algae” with algae (T1-7 d: 7 days after Treatment 1, canal section 6.75 to 7.00 miles). The “Canal Description” value with algae (T1-10 d: 10 days after Treatment 1) was “Slight amount of algae is growing along the sides of the canal; also recorded: Slight amount of algae is growing on the water surface and along the sides of; also recorded: Small amount of algae is growing on the water surface and along the sides of; also recorded: Slightly larger patches of algae are growing on the water surface and along”; with algae (T2-12 h: 12 hr. after Treatment 2), “Canal visually free of algae; also recorded: Small amounts of discolored/dying algae are adhering to bottom of the canal; also recorded: Small amounts of discolored/dying algae are adhering to the bottom and sides of”; in the data set on algae (T2-8 d: 8 days after Treatment 2, canal section 0.00 to 0.25 miles) it was “Clear, visually free of algae”; with algae (T2-8 d: 8 days after Treatment 2, canal section 3.00 to 3.25 miles) it was “Slight amount of algae is growing on the water surface of the canal”; in the data set with algae (T2-8 d: 8 days after Treatment 2, canal section 4.00 to 4.25 miles), “Slight amount of algae is growing on the water surface and along the sides of”; with algae (T2-8 d: 8 days after Treatment 2, canal section 5.50 to 5.75 miles), “Slight amount of algae is growing on the water surface and along the sides”. Besides, the “Canal Description” value was “Small amount of algae is growing on the water surface. The amount of algae” in the data set on algae (T2-8 d: 8 days after Treatment 2, canal section 6.50 to 6.75 miles); “Small amount of algae on the water surface. The amount of algae on the sides” with algae (T2-8 d: 8 days after Treatment 2, canal section 6.75 to 7.00 miles); “Very slight amount of algae is growing along the sides of the canal; also recorded: Slight amount of algae is growing along the sides of the canal; also recorded: Slight amount of algae is growing on the water surface and along the sides; also recorded: Slight amount of algae is growing on water surface and along the sides and; also recorded: Slightly more algae is growing on water surface and along the sides of the; also recorded: Slightly more algae is growing on the water surface and along the sides of” in the data set on algae (T2-12 d: 12 days after Treatment 2); “Slight amount of algae is growing on the water surface and along the sides of the; also recorded: Slightly larger patches of algae are growing on the water surface and along the sides; also recorded: Slight amount of algae is growing along the sides of the canal” in the data set with algae (T2-b: just before Treatment 2, 10 days after Treatment 1); “Canal visually free of algae” with algae (T3-12 h: 12 hr. after Treatment 3, canal section 3.25 to 3.50 miles); “Small amounts of discolored/dying algae are present” in the data set on algae (T3-12 h: 12 hr. after Treatment 3, canal section 5.00 to 5.25 miles). Moreover, the “Canal Description” value with algae (T3-12 h: 12 hr. after Treatment 3, canal section 5.75 to 6.00 miles) was “Small amounts of discolored/dying algae are adhering to the bottom and sides of”; with algae (T3-b: just before Treatment 3, 12 days after Treatment 2), “Slight amount of algae is growing along the sides of the canal; also recorded: Slightly more algae is growing on the water surface and along the sides of the canal; also recorded: More algae is growing on the water surface of the canal. Small amount of algae is; also recorded: Very slight amount of algae is growing along the sides of the canal; also recorded: More algae is growing on the water surface of the canal. More algae is growing up”.
